Measurements published in patent publication US20230058623A1, “NOVEL HETEROARYL-TRIAZOLE COMPOUNDS AS PESTICIDES” (Bayer Aktiengesellschaft, priority 2019, published 2023).

Columns and labels:
Assay type in all cases: in vivo
[1] = test system: Rhipicephalus (Boophilus) microplus larvae (strain Parkhurst, resistant against synthetic pyrethroids); test: Rhipicephalus (Boophilus) microplus in-vitro contact test, larval cattle tick; conditions: after 48 hours, read-out: activity (efficacy: larvae dead or moribund); for pest or weed control at 1 µg/cm2, 100 g/ha: application rate 1 μg/cm^2 (=100 g/ha); for pest or weed control at 5 µg/cm2, 500 g/ha: application rate 5 μg/cm^2 (=500 g/ha)
Procedure, shortened: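 Pyrethroid-resistant Parkhurst larvae, 20–50 per tube, were kept 48 h at 27 °C and 85% relative humidity in glass tubes whose inner walls carried a dried acetone film of compound (900 ppm giving 5 μg/cm^2). Dead or moribund larvae, judged by loss of negative geotactic behavior, set percent efficacy.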

[2] = test system: adult cat fleas (Ctenocephalides felis); test: Ctenocephalides felis in-vitro contact test, adult cat flea; conditions: application rate 5 μg/cm^2 (=500 g/ha), after 48 hours, read-out: activity (efficacy: fleas dead or moribund)
Procedure, shortened: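 After 48 h of room-temperature exposure in tubes whose walls carried dried compound residue (5 μg/cm^2, from 900 ppm acetone solution), adult cat fleas (5-10 per tube) were heat-challenged at 45-50° C up to 5 min. Fleas unable to climb away were counted dead or moribund, expressed as % efficacy.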

[3] = test system: adult unfed cat fleas (Ctenocephalides felis); test: Ctenocephalides felis oral test; conditions: 48 h, read-out: activity (mortality)
Procedure, shortened: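 About 20 adult unfed cat fleas fed through parafilm on citrated cattle blood containing compound (from a DMSO concentrate). Blood held at 37° C, fleas at room temperature. Mortality in % scored after 2 days.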

[4] = test system: green peach aphid (Myzus persicae); test: Myzus persicae spray test; conditions: foliar, 120 h, after 5 days, Chinese cabbage leaf disks; for mortality at 100 g/ha: application rate 100 g/ha, read-out: activity (mortality)
Procedure, shortened: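 Percent kill was recorded 5 days after spraying. Test solutions, prepared with solvent and diluted in 1000 ppm emulsifier water, were applied to Brassica pekinensis leaf disks carrying mixed-instar green peach aphids.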

[5] = test system: larvae of the southern green stink bug (Nezara viridula); test: Nezara viridula spray test; conditions: 96 h, after 4 days, barley plants; for mortality at 100 g/ha: application rate 100 g/ha; for mortality at 500 g/ha: application rate 500 g/ha, read-out: activity (mortality)
Procedure, shortened: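 Barley plants sprayed with the active compound in emulsifier-containing water, then infested with stink bug larvae. Mortality scored in % after 4 days, with 100% meaning all insects killed.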

[6] = test system: fall armyworm larvae (Spodoptera frugiperda); test: Spodoptera frugiperda spray test; conditions: 168 h, application rate 100 g/ha, after 7 days, maize leaf sections
Procedure, shortened: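 Percent larval kill read at day 7 on Zea mays leaf pieces that were spray-treated and, after drying, infested. Spray preparations made by dilution with emulsifier-containing water (1000 ppm).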

[7] = test system: adult mosquitoes Aedes aegypti strain MONHEIM; test: Aedes aegypti test (AEDSAE surface treatment & contact assay); conditions: 24 hours after contact, read-out: efficacy (mortality); for mortality at 20 mg/m2: surface concentration 20 mg/m^2, exposure 30 minutes; for mortality at 4 mg/m2: surface concentration 4 mg/m^2, exposure 30 minutes
Procedure, shortened: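 Compound in acetone (2 mg/ml) with 2000 ppm RME dried onto glazed tile; adults exposed to the treated surface for 30 min. Percent mortality scored 24 h after contact.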

[8] = test system: adult flies Musca domestica strain WHO-N; test: Musca domestica test (MUSCDO surface treatment & contact assay); conditions: 24 hours after contact, read-out: efficacy (mortality); for mortality at 20 mg/m2: surface concentration 20 mg/m^2, exposure 30 minutes; for mortality at 4 mg/m2: surface concentration 4 mg/m^2, exposure 30 minutes
Procedure, shortened: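 Compound dissolved at 2 mg/ml in acetone with 2000 ppm RME, applied to glazed tile and dried; adult flies exposed on the surface for 30 min. Percent mortality scored 24 h after contact.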

SMILES	pest or weed control at 1 µg/cm2, 100 g/ha [1] [%]	pest or weed control at 5 µg/cm2, 500 g/ha [1] [%]	pest or weed control at 5 µg/cm2 [2] [%]	mortality at 100 ppm [3] [%]	mortality at 100 g/ha [4] [%]	mortality at 100 g/ha [5] [%]	mortality at 100 g/ha [6] [%]	mortality at 20 mg/m2 [7] [%]	mortality at 20 mg/m2 [8] [%]	mortality at 4 mg/m2 [7] [%]	mortality at 4 mg/m2 [8] [%]	mortality at 500 g/ha [5] [%]	mortality at 500 g/ha ([4]; application rate 500 g/ha) [%]
C[C@@H]1CN(C(=O)c2ccc(-n3ncnc3[C@H](C)NC(=O)c3cc(C(F)(F)F)cc(C(F)(F)F)c3)nc2)C[C@@H](C)O1 [Example I-46]	100	100	100	100	90	100	100	80 to 100	80 to 100	–	–	–	–
COC1CCCN(C(=O)c2ccc(-n3ncnc3[C@H](C)NC(=O)c3cc(C(F)(F)F)cc(C(F)(F)F)c3)nc2)C1 (some centres unmarked) [Example I-8]	100	100	100	100	90	90	100	80 to 100	80 to 100	–	–	–	–
C[C@H](NC(=O)c1cc(Cl)cc(C(F)(F)F)c1)c1ncnn1-c1ccc(C(=O)N2CCS(=O)(=O)CC2)cn1 [Example I-35]	100	100	100	100	90	100	–	80 to 100	–	80 to 100	–	–	–
CC1CN(C(=O)c2ccc(-n3ncnc3[C@H](C)NC(=O)c3cc(C(F)(F)F)cc(C(F)(F)F)c3)nc2)CC(C)O1 (some centres unmarked) [Example I-5]	100	100	100	100	100	–	100	80 to 100	80 to 100	80 to 100	80 to 100	–	–
C[C@H](NC(=O)c1cc(C(F)(F)F)cc(C(F)(F)F)c1)c1ncnn1-c1ccc(C(=O)N2CCS(=O)(=O)CC2)cn1 [Example I-75]	100	100	100	–	100	–	100	80 to 100	80 to 100	80 to 100	80 to 100	100	–
C[C@H](NC(=O)c1cc(C(F)(F)F)cc(C(F)(F)F)c1)c1ncnn1-c1ccc(C(=O)N2CCOCC2)cn1 [Example I-2]	100	100	100	–	100	100	100	80 to 100	80 to 100	80 to 100	80 to 100	100	100
Cc1nc([C@H](C)NC(=O)c2cc(C(F)(F)F)cc(C(F)(F)F)c2)n(-c2ccc(C(=O)N3CCOCC3)cn2)n1 [Example I-9, N-[(1S)-1-{3-methyl-1-[5-(morpholin-4-ylcarbonyl)pyridin-2-yl]-1H-1,2,4-triazol-5-yl}ethyl]-3,5-bis(trifluoromethyl)benzamide]	100	100	100	–	100	100	100	80 to 100	80 to 100	80 to 100	80 to 100	–	–
C[C@H](NC(=O)c1cc(C(F)(F)F)cc(C(F)(F)F)c1)c1ncnn1-c1ccc(C(=O)N2CCCC2)cn1 [Example I-11]	100	100	100	–	90	100	100	80 to 100	80 to 100	80 to 100	–	–	–
